Measured values from US7528132B2, “Kinase inhibitors” (Schering Corporation, priority 2005, dated 2009).
Read-outs that look alike come from different tables or passages of the source.

Molecular target: T1, Akt1 (Homo sapiens, UniProt P31749)
T1 construct: made in house; host or cells: Sf9 insect cells (baculovirus, pBlueBacHis2B)
Assay: Akt1 kinase assay (33P phosphorylation of biotinylated peptide, Flash plates)
Assay type: biochemical
Details: for inhibition at 1.1 µg/mL: assayed at a concentration of 1.1 mcg/mL
Source text: The assay described below measures the phosphorylation of a biotinylated peptide by active recombinant Akt1 and other kinase isoforms. The biotinylated peptide contains a consensus sequence derived from Akt substrate Gsk3 (Glycogen synthase kinase 3). The ^33P-labeled peptide substrate was captured by streptavidin-coated Flash plates.
Active recombinant Akt1 was expressed in Sf9 insect cells and purified as described by Kumar et al., Biochim. Biophys. Acta. Jun. 15, 2001, 1526(3), 257-268. Biotinylated peptide of the sequence Bio-ahx-RPRAASF was purchased from Syn Pep (Dublin, Calif., USA).
Cloning and Expression of Human Akt1 Sf9 Cells
Human Akt1 cDNA was amplified from a marathon-ready human lung cDNA library (Clonetech) using nested oligo primers as described below. The first round of amplification was carried out using the following primers; Akt1F1 ([…]) and Akt1R1 (TCCATC […]) and for the second round amplification, the primers of the following sequence were used; Akt1F2 (GGATCCTCGG […]) and AKT1R2 (GGTACCATCGTC […]). The PCR product was subcloned into pCRScript plasmid as a BamHI/KpnI fragment and the sequence of the cDNA was confirmed by DNA sequencing. This plasmid was used as a template for reamplification of Akt1 using appropriate primers for subcloning into pBlueBaHis2B into BamH1/EcoRI sites to generate an in frame fusion to (His)6 tag and an anti-Xpress antibody epitope tag at the N-terminus. This construct was sequenced to verify the junction sequences and used for generating a recombinant baculovirus. Growth of the recombinant virus, amplification and determination of viral titer were carried out according to the instructions from the manufacturer (InVitrogen, CA).
Purification of Akt1 from Sf9 Cells
Viral stocks were used to infect large scale Sf9 cells at a multiplicity of infection (MOI) of 2.5. Cells were maintained at 27° C. for 60 h and okadaic acid was added to the cultures to a concentration of 50 nM. Cells were harvested 4 h hours later by centrifugation at 1200 rpm for 30 min followed by freezing at −80° C. until further use. All purification steps were carried out at 4° C. Whole cell pellets were suspended in buffer A (20 mM sodium phosphate buffer pH 7.8, 500 mM NaCl, 1 mM sodium vanadate, 5 mM sodium fluoride, 40 mM β-glycerophosphate, 10 mM imidazole and protease inhibitor cocktail) and lysed using a microfluidizer. The cell extract was centrifuged at 16,000×g for 10 min to remove the debris and directly loaded onto Ni-NTA Superflow resin using a FPLC pump operated at 1 ml/min. The column was washed once with buffer A, once with wash buffer B (20 mM sodium phosphate pH 6.0, 1 mM sodium vanadate, 5 mM sodium fluoride and protease cocktail) and once with wash buffer B containing 0.05% Tween-20 followed by washing with buffer A until OD260 returned to basal level. Proteins were eluted with buffer A containing 200 mM imidazole. Fractions were analyzed by electrophoresis on 10% denaturing polyacrylamide gels and fractions containing 85% pure protein band at 60 KDa were pooled and dialyzed against buffer C (20 mM Tris-HCl pH 7.5, 0.5 mM EDTA,-2 mM DTT, 145 mM NaCl, 0.1 mM sodium vanadate, 5 mM sodium fluoride, 10 mM, β-glycerophosphate and 20% glycerol). Purified protein was stored as aliquots at −80° C. Protein concentrations were determined using BCA protein assay reagent A (Catalog #23228). To examine the identity of the proteins, 2 μg of purified protein was electrophoresed on SDS-polyacrylamide gels and stained with coomassie blue dye or transferred to nitrocellulose membrane and probed with anti-Akt and anti-phospho-specific Akt antibodies using enhanced chemiluminescence (ECL) reagent according to the protocol described by the manufacturer (Amersham).
The kinase assay was performed in 96 well plates at room temperature. Assay solutions and plates were preincubated at room temperature for 5 min. […]

[1] = read-out: IC50 rating (AKT1 inhibition)
[2] = read-out: IC50 (AKT1 inhibition)

T1 sequence (P31749 whole entry): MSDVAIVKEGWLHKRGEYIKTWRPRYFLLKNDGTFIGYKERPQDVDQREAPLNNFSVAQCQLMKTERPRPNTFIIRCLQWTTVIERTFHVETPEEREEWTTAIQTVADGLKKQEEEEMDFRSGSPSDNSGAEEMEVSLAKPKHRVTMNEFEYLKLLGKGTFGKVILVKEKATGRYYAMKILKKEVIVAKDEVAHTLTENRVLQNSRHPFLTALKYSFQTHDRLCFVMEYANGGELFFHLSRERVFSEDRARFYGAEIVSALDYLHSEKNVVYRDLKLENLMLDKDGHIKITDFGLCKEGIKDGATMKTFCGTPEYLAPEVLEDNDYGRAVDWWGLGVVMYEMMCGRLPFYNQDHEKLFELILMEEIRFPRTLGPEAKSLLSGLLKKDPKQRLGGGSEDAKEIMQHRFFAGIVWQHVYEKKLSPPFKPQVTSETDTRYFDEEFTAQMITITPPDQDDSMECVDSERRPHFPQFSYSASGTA

IC50 [1] [nM]	inhibition at 1.1 µg/mL [%]	IC50 [2] [nM]	SMILES
> 1000	–	–	Cc1n[nH]c2ccc(-c3nncc(N4CCNC(Cc5ccccn5)C4)n3)cc12 (stereo not drawn) [Compound 58, 3-(3-methylindazol-5-yl)-5-[3-(pyridin-2-ylmethyl)piperazin-1-yl]-[1,2,4]triazine]
100 to 1000	–	–	Cc1n[nH]c2ccc(-c3nncc(N4CCNC(Cc5ccncc5)C4)n3)cc12 (stereo not drawn) [Compound 68, 3-(3-methylindazol-5-yl)-5-[3-(pyridin-4-ylmethyl)piperazin-1-yl]-[1,2,4]triazine]
> 1000	–	–	Cc1n[nH]c2ccc(-c3nncc(N4CCN[C@@H](COCc5ccccc5)C4)n3)cc12 [Compound 26, 5-[(R)-3-(benzyloxymethyl)piperazin-1-yl]-3-(3-methylindazol-5-yl)-[1,2,4]triazine]
100 to 1000	–	–	Cc1n[nH]c2ccc(-c3nncc(N4CCN[C@H](c5ccccc5)C4)n3)cc12 [Compound 42, 3-(3-methylindazol-5-yl)-5-[(R)-3-phenylpiperazin-1-yl]-[1,2,4]triazine]
100 to 1000	–	–	Cc1n[nH]c2ccc(-c3nncc(N4CCCC(Cc5ccccc5)C4)n3)cc12 (stereo not drawn) [Compound 59, 5-(3-benzylpiperidin-1-yl)-3-(3-methylindazol-5-yl)-[1,2,4]triazine]
> 1000	–	–	CC(C)C[C@H]1CN(c2cnnc(-c3ccc4[nH]nc(-c5ccccc5)c4c3)n2)CCN1 [Compound 72, 5-[(S)-3-isobutylpiperazin-1-yl]-3-(3-phenylindazol-5-yl)-[1,2,4]triazine]
> 1000	–	–	Cc1n[nH]c2ccc(-c3nncc(N4CCN[C@@H](CO)C4)n3)cc12 [Compound 27]
< 100	–	–	Cc1n[nH]c2ccc(-c3nncc(N4CCNC(Cc5ccc(F)cc5)C4)n3)cc12 (stereo not drawn) [Compound 45, 5-[3-(4-fluorobenzyl)piperazin-1-yl]-3-(3-methylindazol-5-yl)-[1,2,4]triazine]
< 100	> 90	–	Cc1n[nH]c2ccc(-c3nnc(N)c(N4CCN[C@@H](Cc5ccccc5)C4)n3)cc12 [Compound 5, 6-amino-5-[(S)-3-benzylpiperazin-1-yl]-3-(3-methylindazol-5-yl)-[1,2,4]triazine]
< 100	–	–	Cc1n[nH]c2ccc(-c3nncc(N4CCNC(Cc5ccccc5F)C4)n3)cc12 (stereo not drawn) [Compound 48, 5-[3-(2-fluorobenzyl)piperazin-1-yl]-3-(3-methylindazol-5-yl)-[1,2,4]triazine]
< 100	> 90	5.4	Cc1n[nH]c2ccc(-c3nncc(N4CCN[C@@H](CC(C)C)C4)n3)cc12 [Compound 23, 5-[(S)-3-isobutylpiperazin-1-yl]-3-(3-methylindazol-5-yl)-[1,2,4]triazine]

The remaining lines, values behind:

SMILES	IC50 [1] [nM]	inhibition at 1.1 µg/mL [%]	IC50 [2] [nM]
Cc1n[nH]c2ccc(-c3nncc(N4CCC(N)C4)n3)cc12 (stereo not drawn) [Compound 37, 5-(3-aminopyrrolidin-1-yl)-3-(3-methylindazol-5-yl)-[1,2,4]triazine]	100 to 1000	–	–
Cc1n[nH]c2ccc(-c3nnc(N)c(O)n3)cc12 [Compound 2]	> 1000	–	–
CC(C)C[C@H]1CN(c2cnnc(-c3ccc4[nH]nc(C5CC5)c4c3)n2)CCN1 [Compound 76, 3-(3-cyclopropylindazol-5-yl)-5-[(S)-3-isobutylpiperazin-1-yl]-[1,2,4]triazine]	100 to 1000	–	–
Cc1n[nH]c2ccc(-c3nncc(N4CCCC(CO)(Cc5ccccc5)C4)n3)cc12 (stereo not drawn) [Compound 63]	100 to 1000	–	–
Cc1n[nH]c2ccc(-c3nncc(N4CCN5CCCC5C4)n3)cc12 (stereo not drawn) [Compound 29, 5-(1,4-diazabicyclo[4.3.0]non-1-yl)-3-(3-methylindazol-5-yl)-[1,2,4]triazine]	> 1000	–	–
Cc1n[nH]c2ccc(-c3nncc(N4CCNCC4)n3)cc12 [Compound 46, 3-(3-methylindazol-5-yl)-5-(piperazin-1-yl)-[1,2,4]triazine]	100 to 1000	–	–
CCC[C@H]1CN(c2nc(-c3ccc4[nH]nc(C)c4c3)nnc2CCc2ccccc2)CCN1 [Compound 94, 3-(3-methylindazol-5-yl)-6-phenethyl-5-[(S)-3-propylpiperazin-1-yl]-[1,2,4]triazine]	< 100	–	–
Cc1n[nH]c2ccc(-c3nnc(N(Cc4ccccc4)Cc4ccccc4)c(N4CCNCC4)n3)cc12 [Compound 4, 6-dibenzylamino-3-(3-methylindazol-5-yl)-5-(piperazin-1-yl)-[1,2,4]triazine]	> 1000	–	–
Cc1n[nH]c2ccc(-c3nnc(N)c(N4CCN[C@H](c5ccccc5)C4)n3)cc12 [Compound 6, 6-amino-3-(3-methylindazol-5-yl)-5-[(R)-3-phenylpiperazin-1-yl]-[1,2,4]triazine]	100 to 1000	–	–
Cc1n[nH]c2ccc(-c3nnc(CCc4ccccc4)c(N4CCNCC4)n3)cc12 [Compound 92, 3-(3-methylindazol-5-yl)-6-phenethyl-5-(piperazin-1-yl)-[1,2,4]triazine]	< 100	–	–
Cc1n[nH]c2ccc(-c3nnc(N)c(N4CCNC5(CCCC5)C4)n3)cc12 [Compound 85, 6-amino-5-(6,9-diaza-spiro[4.5]dec-9-yl)-3-(3-methylindazol-5-yl)-[1,2,4]triazine]	100 to 1000	–	–
Cc1n[nH]c2ccc(-c3nnc(N)c(N4CCC(N)C4)n3)cc12 (stereo not drawn) [Compound 83, 6-amino-5-(3-aminopyrrolidin-1-yl)-3-(3-methylindazol-5-yl)-[1,2,4]triazine]	100 to 1000	–	–
CC(C)C[C@H]1CN(c2cnnc(-c3ccc4[nH]nc(Cl)c4c3)n2)CCN1 [Compound 64, 3-(3-chloroindazol-5-yl)-5-[(S)-3-isobutylpiperazin-1-yl]-[1,2,4]triazine]	< 100	–	6.1
Cc1n[nH]c2ccc(-c3nnc(N)c(N4CCCNCC4)n3)cc12 [Compound 10, 6-amino-5-([1,4]diazepan-1-yl)-3-(3-methylindazol-5-yl)-[1,2,4]triazine]	100 to 1000	> 90	–
CCc1n[nH]c2ccc(-c3nncc(N4CCNCC4)n3)cc12 [Compound 78, 3-(3-ethylindazol-5-yl)-5-piperazin-1-yl-[1,2,4]triazine]	> 1000	–	–
Cc1n[nH]c2ccc(-c3nnc(N)c(N4CCN[C@@H](C(C)C)C4)n3)cc12 [Compound 7, 6-amino-5-[(S)-3-isopropylpiperazin-1-yl]-3-(3-methylindazol-5-yl)-[1,2,4]triazine]	< 100	> 90	–
COC(=O)C1CN(c2cnnc(-c3ccc4[nH]nc(C)c4c3)n2)CCN1 (stereo not drawn) [Compound 39]	> 1000	–	–
Cc1n[nH]c2ccc(-c3nnc(N)c(N4CCNC5(CCCCC5)C4)n3)cc12 [Compound 82, 6-amino-5-(1,4-diaza-spiro[5.5]undec-4-yl)-3-(3-methylindazol-5-yl)-[1,2,4]triazine]	100 to 1000	–	–
CC(C)C[C@H]1CN(c2cnnc(-c3ccc4[nH]ncc4c3)n2)CCN1 [Compound 61, 3-indazol-5-yl-5-[(S)-3-isobutylpiperazin-1-yl]-[1,2,4]triazine]	< 100	–	–
Cc1n[nH]c2ccc(-c3nnc(Cl)c(N4CCN5CCCC5C4)n3)cc12 (stereo not drawn) [Compound 31, 6-chloro-5-(1,4-diazabicyclo[4.3.0]non-1-yl)-3-(3-methylindazol-5-yl)-[1,2,4]triazine]	> 1000	–	–
Cc1n[nH]c2ccc(-c3nnc(Cl)c(N4CCN[C@@H](COCc5ccccc5)C4)n3)cc12 [Compound 25, 5-[(R)-3-(benzyloxymethyl)piperazin-1-yl]-6-chloro-3-(3-methylindazol-5-yl)-[1,2,4]triazine]	> 1000	–	–
Cc1n[nH]c2ccc(-c3nnc(Cl)c(N4CCN5CCCCC5C4)n3)cc12 (stereo not drawn) [Compound 32]	> 1000	–	–
